Results on 20 compounds are retold here after EP2257297B1, “COMPOUNDS FOR USE IN THE TREATMENT OF ACNE, SEBORRHOEA AND SEBHORROEIC DERMATITIS, OR FOR REDUCING SEBUM SECRETION” (priority 2008, dated 2009).

pIC50: −log10 of the molar value.

For orientation: pIC50 means the IC50 on a negative log10 scale, so that one unit is a factor of ten.

The target in the assay is T1, human MC5R (Homo sapiens, UniProt P33032).
T1 construct: purchased Perkin Elmer RBXMC5M400UA
T1 sequence (P33032 whole entry): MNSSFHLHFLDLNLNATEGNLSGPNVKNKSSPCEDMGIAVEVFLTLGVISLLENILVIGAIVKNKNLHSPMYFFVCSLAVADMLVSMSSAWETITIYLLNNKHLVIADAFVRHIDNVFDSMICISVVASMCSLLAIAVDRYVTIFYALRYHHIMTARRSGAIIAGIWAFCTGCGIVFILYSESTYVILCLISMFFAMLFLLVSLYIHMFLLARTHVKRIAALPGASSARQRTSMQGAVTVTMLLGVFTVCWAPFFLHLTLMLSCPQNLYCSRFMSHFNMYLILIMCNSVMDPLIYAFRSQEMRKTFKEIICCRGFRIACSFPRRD
In words: Human MC5R radioligand binding assay ([125I] NDP-MSH displacement, hMC5R membranes). Particulars: hMC5R assay as in Example 102; compounds tested as trifluoroacetate or hydrochloride salts, or as free base. The essentials: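 Bound ligand collected by filtration on PEI-soaked GF/A filters and counted. Data fitted to a single-site competition model with fixed Hill coefficient to give EC50.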
On to `NCCC[C@@H]1N[C@H](CNC(=O)c2cc(-c3ccccc3)n[nH]2)CCN(CC(c2ccccc2)c2ccccc2)C1=O` [Compound 256, N-(((3S,5S)-3-(3-aminopropyl)-1-(2,2-diphenylethyl)-2-oxo-1,4-diazepan-5-yl)methyl)-3-phenyl-1H-pyrazole-5-carboxamide], for which the pIC50 was above 6.00. The value for `CN(C[C@@H]1CCN(CC(c2ccccc2)c2ccccc2)C(=O)[C@H](CCCN)N1)C(=O)/C=C/c1ccc(F)cc1` [Compound 257, (E)-N-(((3S,5S)-3-(3-aminopropyl)-1-(2,2-diphenylethyl)-2-oxo-1,4-diazepan-5-yl)methyl)-3-(4-fluorophenyl)-N-methylacrylamide] was above 5.00. In the case of `CN1[C@H](CNC(=O)/C=C/c2ccc(F)cc2)CCN(CC(c2ccccc2)c2ccccc2)C(=O)[C@@H]1CCCN` [Compound 258, (E)-N-(((3S,5S)-3-(3-aminopropyl)-1-(2,2-diphenylethyl)-4-methyl-2-oxo-1,4-diazepan-5-yl)methyl)-3-(4-fluorophenyl)acrylamide], the pIC50 is above 6.00. Then `CC1=NN(c2ccc(C(=O)NC[C@@H]3CCN(CC(c4ccccc4)c4ccccc4)C(=O)[C@H](CCCN)N3)cc2)C(=O)C1` [Compound 259, N-(((3S,5S)-3-(3-aminopropyl)-1-(2,2-diphenylethyl)-2-oxo-1,4-diazepan-5-yl)methyl)-4-(3-methyl-5-oxo-4,5-dihydro-1H-pyrazol-1-yl)benzamide], with above 6.00; and `NCCC[C@@H]1N[C@H](CNC(=O)/C=C/c2ccc(Br)cc2)CCN(CC(c2ccccc2)c2ccccc2)C1=O` [Compound 260, (E)-N-(((3S,5S)-3-(3-aminopropyl)-1-(2,2-diphenylethyl)-2-oxo-1,4-diazepan-5-yl)methyl)-3-(4-bromophenyl)acrylamide], with above 7.00.

Consider `O=C(/C=C/c1ccc(Cl)cc1)NC[C@@H]1CCN(CC(c2ccccc2)c2ccccc2)C(=O)[C@H](CCCN2CCCCC2)N1` [Compound 262, (E)-3-(4-chlorophenyl)-N-(((3S,5S)-1-(2,2-diphenylethyl)-2-oxo-3-(3-(piperidin-1-yl)propyl)-1,4-diazepan-5-yl)methyl)acrylamide], for which the pIC50 is above 7.00. Then `Cc1ccc(C(=O)NC[C@@H]2CCN(CC(c3ccccc3)c3ccccc3)C(=O)[C@H](CCCN3CCCCC3)N2)cc1C` [Compound 270, N-(((3S,5S)-1-(2,2-diphenylethyl)-2-oxo-3-(3-(piperidin-1-yl)propyl)-1,4-diazepan-5-yl)methyl)-3,4-dimethylbenzamide], with above 7.00. `O=C(NC[C@@H]1CCN(CC(c2ccccc2)c2ccccc2)C(=O)[C@H](CCCN2CCCCC2)N1)c1ccc(Cl)c(Cl)c1` [Compound 271, 3,4-dichloro-N-(((3S,5S)-1-(2,2-diphenylethyl)-2-oxo-3-(3-(piperidin-1-yl)propyl)-1,4-diazepan-5-yl)methyl)benzamide]: the pIC50 was above 7.00. Then `NC[C@@H]1N[C@H](CNC(=O)/C=C/c2ccc(Cl)cc2)CCN(CC(c2ccccc2)c2ccccc2)C1=O` [Compound 275, (E)-N-(((3S,5S)-3-(aminomethyl)-1-(2,2-diphenylethyl)-2-oxo-1,4-diazepan-5-yl)methyl)-3-(4-chlorophenyl)acrylamide], with above 7.00; and `NCC[C@@H]1N[C@H](CNC(=O)/C=C/c2ccc(F)cc2)CCN(CC(c2ccccc2)c2ccccc2)C1=O` [Compound 276, (E)-N-(((3S,5S)-3-(2-aminoethyl)-1-(2,2-diphenylethyl)-2-oxo-1,4-diazepan-5-yl)methyl)-3-(4-fluorophenyl)acrylamide], with above 7.00; and `Cc1ccc(/C=C/C(=O)NC[C@@H]2CCN(CC(c3ccccc3)c3ccccc3)C(=O)[C@H](CCN)N2)cc1` [Compound 277, (E)-N-(((3S,5S)-3-(2-aminoethyl)-1-(2,2-diphenylethyl)-2-oxo-1,4-diazepan-5-yl)methyl)-3-p-tolylacrylamide], with above 7.00. Then `O=C(/C=C/c1ccc(Cl)cc1)NC[C@@H]1CCN(CC(c2ccccc2)c2ccccc2)C(=O)[C@H](CN2CCCCC2)N1` [Compound 279, (E)-3-(4-chlorophenyl)-N-(((3S,5S)-1-(2,2-diphenylethyl)-2-oxo-3-(piperidin-1-ylmethyl)-1,4-diazepan-5-yl)methyl)acrylamide], with above 8.00; and `NCC[C@@H]1N[C@H](CNC(=O)c2ccc(Cl)c(Cl)c2)CCN(CC(c2ccccc2)c2ccccc2)C1=O` [Compound 280, N-(((3S,5S)-3-(2-aminoethyl)-1-(2,2-diphenylethyl)-2-oxo-1,4-diazepan-5-yl)methyl)-3,4-dichlorobenzamide], with above 6.00. The value for `Cc1ccc(C(=O)NC[C@@H]2CCN(CC(c3ccccc3)c3ccccc3)C(=O)[C@H](CCN)N2)cc1C` [Compound 281, N-(((3S,5S)-3-(2-aminoethyl)-1-(2,2-diphenylethyl)-2-oxo-1,4-diazepan-5-yl)methyl)-3,4-dimethylbenzamide] was above 6.00; that for `NCC[C@@H]1N[C@H](CNC(=O)/C=C/c2ccc(Cl)cc2)CCN(CC(c2ccccc2)c2ccccc2)C1=O` [Compound 283, (E)-N-(((3S,5S)-3-(2-aminoethyl)-1-(2,2-diphenylethyl)-2-oxo-1,4-diazepan-5-yl)methyl)-3-(4-chlorophenyl)acrylamide] was above 7.00; that for `O=C(NC[C@@H]1CCN(CC(c2ccccc2)c2ccccc2)C(=O)[C@H](CCN2CCCCC2)N1)c1ccc(Cl)c(Cl)c1` [Compound 284, 3,4-dichloro-N-(((3S,5S)-1-(2,2-diphenylethyl)-2-oxo-3-(2-(piperidin-1-yl)ethyl)-1,4-diazepan-5-yl)methyl)benzamide] was above 8.00. Regarding `Cc1ccc(C(=O)NC[C@@H]2CCN(CC(c3ccccc3)c3ccccc3)C(=O)[C@H](CCN3CCCCC3)N2)cc1C` [Compound 285, N-(((3S,5S)-1-(2,2-diphenylethyl)-2-oxo-3-(2-(piperidin-1-yl)ethyl)-1,4-diazepan-5-yl)methyl)-3,4-dimethylbenzamide], the pIC50 is above 7.00.

`CCCC[C@@H]1N[C@H](CNC(=O)/C=C/c2ccc(Cl)cc2)CCN(CC(c2ccccc2)c2ccccc2)C1=O` [Compound 297, (E)-N-(((3S,5S)-3-butyl-1-(2,2-diphenylethyl)-2-oxo-1,4-diazepan-5-yl)methyl)-3-(4-chlorophenyl)acrylamide]: the pIC50 is above 6.00. Then `NC(=O)CC[C@@H]1N[C@H](CNC(=O)/C=C/c2ccc(Cl)cc2)CCN(CC(c2ccccc2)c2ccccc2)C1=O` [Compound 298, (E)-N-(((3S,5S)-3-(3-amino-3-oxopropyl)-1-(2,2-diphenylethyl)-2-oxo-1,4-diazepan-5-yl)methyl)-3-(4-chlorophenyl)acrylamide], with above 6.00. Regarding `O=C(/C=C/c1ccc(Cl)cc1)NC[C@@H]1CCN(CC(c2ccccc2)c2ccccc2)C(=O)[C@H](CCNC(=O)C2CCCCC2)N1` [Compound 306, N-(2-((2S,7S)-7-(((E)-3-(4-chlorophenyl)acrylamido)methyl)-4-(2,2-diphenylethyl)-3-oxo-1,4-diazepan-2-yl)ethyl)cyclohexanecarboxamide], the pIC50 was above 6.00.
